In test [1] the target is T1, FAAH (Homo sapiens, UniProt O00519).
T1 sequence (O00519 1-579): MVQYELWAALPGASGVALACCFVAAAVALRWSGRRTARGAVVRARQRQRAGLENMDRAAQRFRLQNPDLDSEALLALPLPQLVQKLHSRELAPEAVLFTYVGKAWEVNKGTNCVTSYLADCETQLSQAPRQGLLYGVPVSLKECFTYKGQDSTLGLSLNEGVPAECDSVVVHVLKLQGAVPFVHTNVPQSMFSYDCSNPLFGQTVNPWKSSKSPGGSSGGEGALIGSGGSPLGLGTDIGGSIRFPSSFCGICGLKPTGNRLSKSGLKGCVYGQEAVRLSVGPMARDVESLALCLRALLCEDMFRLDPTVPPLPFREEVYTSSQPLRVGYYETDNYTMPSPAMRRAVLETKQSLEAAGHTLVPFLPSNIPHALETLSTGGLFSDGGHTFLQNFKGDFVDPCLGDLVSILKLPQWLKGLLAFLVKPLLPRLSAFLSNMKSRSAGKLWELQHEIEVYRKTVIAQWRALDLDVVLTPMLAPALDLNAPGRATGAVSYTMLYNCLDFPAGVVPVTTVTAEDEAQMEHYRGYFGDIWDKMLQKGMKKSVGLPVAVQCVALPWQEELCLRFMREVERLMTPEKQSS
In words: Assay Method 1: human FAAH assay (3H-anandamide hydrolysis in cell homogenate). Format: biochemical. Set-up: expressed in transfected cells; host or cells: SK-N-MC cells stably transfected with human FAAH cDNA (G418 selection); alternatively T84 cell pellets. As to conditions: read-out: Assay 1 IC50. The gist of the method:
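Homogenates of T84 cells or SK-N-MC cells stably transfected with human FAAH, in pH 9 Tris/EDTA buffer with 0.02% Triton X-100. Incubated 1 h at rt with compound and 80 nM (final) [3H-ethanolamine]-anandamide. Released 3H-ethanolamine separated on charcoal filters and counted by scintillation.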

The target of test [2] is T2, Rat FAAH (Rattus norvegicus, UniProt P97612).
T2 construct: expressed in transfected cells; host or cells: SK-N-MC cells stably transfected with rat FAAH cDNA (G418 selection)
T2 sequence (P97612 1-579): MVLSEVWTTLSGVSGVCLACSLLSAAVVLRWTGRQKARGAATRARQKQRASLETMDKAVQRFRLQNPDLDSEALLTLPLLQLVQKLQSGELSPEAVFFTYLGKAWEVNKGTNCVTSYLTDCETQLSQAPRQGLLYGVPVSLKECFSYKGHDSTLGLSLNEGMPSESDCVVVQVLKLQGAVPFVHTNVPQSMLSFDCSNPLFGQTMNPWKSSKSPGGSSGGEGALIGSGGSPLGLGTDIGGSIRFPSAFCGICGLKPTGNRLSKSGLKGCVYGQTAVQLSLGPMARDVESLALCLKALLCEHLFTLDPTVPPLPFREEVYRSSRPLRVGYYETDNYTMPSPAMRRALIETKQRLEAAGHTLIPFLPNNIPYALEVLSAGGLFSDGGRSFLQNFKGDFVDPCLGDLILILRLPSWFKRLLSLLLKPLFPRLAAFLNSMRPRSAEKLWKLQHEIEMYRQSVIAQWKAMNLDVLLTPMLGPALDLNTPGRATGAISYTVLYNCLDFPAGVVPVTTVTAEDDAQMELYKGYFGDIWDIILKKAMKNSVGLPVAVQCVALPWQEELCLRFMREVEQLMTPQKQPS
In words: Assay Method 2: rat FAAH assay (3H-anandamide hydrolysis in cell homogenate). Format: biochemical. The gist of the method:
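Homogenates of T84 cells or SK-N-MC cells stably transfected with rat FAAH, in pH 9 Tris/EDTA/glycerol/Triton buffer, incubated 1 h at room temperature with 3H-anandamide. Released labeled ethanolamine separated from substrate on activated charcoal and counted by scintillation; values averaged over runs.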

Where a name gives a salt, the structure may show the parent alone. Read-outs that look alike come from different tables or passages of the source.

For `O=C(Nc1cccc2nonc12)N1CC2(CCN(Cc3cccc(Oc4ccc(Cl)cc4)c3)CC2)C1` [Example 52, 7-[3-(4-Chloro-phenoxy)-benzyl]-2,7-diaza-spiro[3.5]nonane-2-carboxylic acid benzo[1,2,5]oxadiazol-4-ylamide, trifluoroacetic acid salt], the IC50 (commonly the concentration needed to halve the response being measured) in test [1] came out at 660 nM; in test [2] (read-out: Assay 2 IC50), 670 nM.
`O=C(Nc1cnccc1Cl)N1CC2(CCN(Cc3cccc(Oc4ccc(Cl)cc4)c3)CC2)C1` [Example 53, 7-[3-(4-Chloro-phenoxy)-benzyl]-2,7-diaza-spiro[3.5]nonane-2-carboxylic acid (4-chloro-pyridin-3-yl)-amide, trifluoroacetic acid salt]: the IC50 in test [1] and in test [2] (read-out: Assay 2 IC50) was 10 nM throughout.
For the molecule `O=C(Nc1cccnc1Cl)N1CC2(CCN(Cc3cccc(Oc4ccc(Cl)cc4)c3)CC2)C1` [Example 54, 7-[3-(4-Chloro-phenoxy)-benzyl]-2,7-diaza-spiro[3.5]nonane-2-carboxylic acid (2-chloro-pyridin-3-yl)-amide, trifluoroacetic acid salt], the IC50 in test [1] was determined as 170 nM; in test [2] (read-out: Assay 2 IC50), 190 nM.
In the case of `O=C(Nc1ccc(N2CCOCC2)nc1)N1CC2(CCN(Cc3cccc(Oc4ccc(Cl)cc4)c3)CC2)C1` [Example 55, 7-[3-(4-Chloro-phenoxy)-benzyl]-2,7-diaza-spiro[3.5]nonane-2-carboxylic acid (6-morpholin-4-yl-pyridin-3-yl)-amide, trifluoroacetic acid salt], the IC50 in test [1] and in test [2] (read-out: Assay 2 IC50) was 6930 nM throughout.
For `O=C(Nc1cc[nH]n1)N1CC2(CCN(Cc3cccc(Oc4ccc(Cl)cc4)c3)CC2)C1` [Example 56, 7-[3-(4-Chloro-phenoxy)-benzyl]-2,7-diaza-spiro[3.5]nonane-2-carboxylic acid (1H-pyrazol-3-yl)-amide, trifluoroacetic acid salt], the IC50 in test [1] amounted to 3690 nM; in test [2] it was 1670 nM.
For the molecule `O=C(Nc1cncc(Cl)c1)N1CC2(CCN(Cc3cccc(Oc4ccc(Cl)cc4)c3)CC2)C1` [Example 57, 7-[3-(4-Chloro-phenoxy)-benzyl]-2,7-diaza-spiro[3.5]nonane-2-carboxylic acid (5-chloro-pyridin-3-yl)-amide, trifluoroacetic acid salt], the IC50 in test [1] came out at 260 nM; in test [2] (read-out: Assay 2 IC50) it was 200 nM.
Regarding `O=C(Nc1ccc(F)nc1)N1CC2(CCN(Cc3cccc(Oc4ccc(Cl)cc4)c3)CC2)C1` [Example 58, 7-[3-(4-Chloro-phenoxy)-benzyl]-2,7-diaza-spiro[3.5]nonane-2-carboxylic acid (6-fluoro-pyridin-3-yl)-amide, trifluoroacetic acid salt], the IC50 in test [1] amounted to 300 nM; in test [2] (read-out: Assay 2 IC50), 690 nM.
With `COc1cc(NC(=O)N2CC3(CCN(Cc4cccc(Oc5ccc(Cl)cc5)c4)CC3)C2)ncn1` [Example 59, 7-[3-(4-Chloro-phenoxy)-benzyl]-2,7-diaza-spiro[3.5]nonane-2-carboxylic acid (6-methoxy-pyrimidin-4-yl)-amide, trifluoroacetic acid salt], the IC50 in test [1] was 250 nM; in test [2] (read-out: Assay 2 IC50), 80 nM.
On the same counts, the results for `O=C(Nc1ccc(Cl)nn1)N1CC2(CCN(Cc3cccc(Oc4ccc(Cl)cc4)c3)CC2)C1` [Example 60, 7-[3-(4-Chloro-phenoxy)-benzyl]-2,7-diaza-spiro[3.5]nonane-2-carboxylic acid (6-chloro-pyridazin-3-yl)-amide, trifluoroacetic acid salt] are 300 nM and 120 nM.
As to `Cc1cc(NC(=O)N2CC3(CCN(Cc4cccc(Oc5ccc(Cl)cc5)c4)CC3)C2)nn1C` [Example 61, 7-[3-(4-Chloro-phenoxy)-benzyl]-2,7-diaza-spiro[3.5]nonane-2-carboxylic acid (1,5-dimethyl-1H-pyrazol-3-yl)-amide, trifluoroacetic acid salt], the IC50 in test [1] and in test [2] (read-out: Assay 2 IC50) was over 10000 nM throughout.

Values taken from patent US20120083476A1, “HETEROARYL-SUBSTITUTED SPIROCYCLIC DIAMINE UREA MODULATORS OF FATTY ACID AMIDE HYDROLASE” (Janssen Pharmaceutica NV, priority 2009, published 2012).
